Converted amounts (≈) assume the structure as drawn.
Columns and labels:
[1] = system: collagen induced platelet aggregation; experiment: In vitro inhibition of collagen induced platelet aggregation (aggregometer method of Born, modified); assay type: cell-based; conditions: Oryctolagus cuniculus; rabbit platelet rich plasma, 0.05 ml. collagen suspension
Experimental: (§1) The aggregometer method of Born (1), as modified by Mustard et al. (2) was used to assess the in vitro activity of the various compounds as to inhibition of adenosine diphosphate (ADP) and collagen induced platelet aggregation. Platelet rich plasma was separated by centrifugation from citrated (3.8 percent) rabbit blood. ADP in final concentration of 0.5 mcg./ml. or 0.05 ml. of a collagen suspension prepared according to the method described by Evans et al. (3) was used to induce aggregation. The various compounds tested were dissolved in dimethylsulfoxide (DMSO) so that 5 mcl. added to the platelet rich plasma would yield the desired test concentration. Vehicle control trials were done and compared with aggregation induced in platelet rich plasma containing various concentrations of the test compounds. Dose response curves were obtained and Effective Concentration (EC50) values calculated.
(§2) 2. mustard, J. F., Hegardt, B. Rowsell, H. C. and MacMillan, R. L., J. Lab. Clin. Med. 64, 548 (1964).
3. Evans, G. Marian M. C., Packham, M. A., Nishizawa, E. E., Mustard, J. F. and Murphy, E. A., J. Exp. Med., 128, 877 (1968).

blood pressure = experiment: Blood pressure of genetically hypertensive rats, P.O. 50 mg/kg; assay type: in vivo; conditions: 50 mg./kg. orally, tested as hydrochloride salts, + increase, - decrease in b.p.; for change in vivo at 50 mg/kg: Rattus norvegicus, po
Experimental: The blood pressure of unanesthetized rats and dogs was measured directly by means of a transducer attached to an intra-arterial cannula and in anesthetized dogs by a mercury manometer attached to a carotid cannula.
The compounds of the instant invention were tested as the hydrochloride salts by the above method in genetically hypertensive rats in doses of 50 mg./kg. orally.

[2] = system: adenosine diphosphate (ADP) induced platelet aggregation; experiment: In vitro inhibition of ADP induced platelet aggregation (aggregometer method of Born, modified); assay type: cell-based; conditions: Oryctolagus cuniculus; rabbit platelet rich plasma, ADP 0.5 mcg./ml.
Experimental: as §1, §2

[3] = system: ADP induced platelet aggregation; experiment: In vivo/in vitro ADP induced platelet aggregation after I.P. dosing of rabbits; design: species or system rabbit; conditions: Oryctolagus cuniculus, ip, 1 to 2 hours after dosing, dose for 50% inhibition of aggregation
Experimental: (§3) *In vivo/In vitro testing:
(§4) Before dosing the animals, blood samples are taken. The blood is centrifuged to obtain the blood platelet-rich plasma. Aggregation of this plasma is induced with ADP or collagen. This is the control.
(§5) The animals are then dosed with the compounds to be tested (orally or parenterally). Depending upon the route of administration, 1 to 2 hours are allowed to elapse after dosing. Blood is drawn and the same procedure employed as for the control in untreated animals.
The dose required to produce 50% inhibition of the aggregation is determined by dose response data obtained in this manner.

[4] = system: ADP induced platelet aggregation; experiment: In vivo/in vitro ADP induced platelet aggregation after P.O. dosing of dogs; design: species or system dog; conditions: 1 to 2 hours after dosing
Experimental: as §3, §4, §5

Row | SMILES | EC50 [1] [µg/mL] | change in vivo at 50 mg/kg (blood pressure) [%] | EC50 [2] [µg/mL] | ED50 [3] [mg/kg] | In Vivo/In Vitro Dogs P.O. 5 mg./kg. ADP % Inhibition [4] [%] | Blood Pressure % Change Rats P.O. 50 mg./kg. (blood pressure)
1 | O=C1CN2Cc3ccccc3N=C2N1 [Compound 1, 1,2,3,5-tetrahydroimidazo [2,1-b]-quinazolin-2-one] | 2 (≈ 10.7 µM) | -36 ± 6 | 6 (≈ 32.1 µM) | > 72 | – | –
2 | O=C1CN2Cc3c(Cl)cccc3N=C2N1 [Compound 2, 6-chloro-1,2,3,5-tetrahydroimidazo[2,1-b]quinazolin-2-one] | 0.02 (≈ 0.0902 µM) | -37 ± 8 | 1 (≈ 4.51 µM) | 2 | – | –
3 | O=C1CN2Cc3cc(Cl)ccc3N=C2N1 [Compound 3] | 0.2 (≈ 0.902 µM) | -4 ± 5 | 0.5 (≈ 2.26 µM) | > 10 | – | –
4 | O=C1CN2Cc3ccc(Cl)cc3N=C2N1 [Compound 4] | 1.5 (≈ 6.77 µM) | -14 | 6 (≈ 27.1 µM) | 18 | – | –
5 | O=C1CN2Cc3cccc(Cl)c3N=C2N1 [Compound 5] | 0.3 (≈ 1.35 µM) | -10 ± 1 | 7 (≈ 31.6 µM) | 6 | – | –
6 | O=C1CN2Cc3cc(Br)ccc3N=C2N1 [Compound 6, 7-Bromo-1,2,3,5-tetrahydroimidazo[2,1-b]-quinazolin-2-one] | 0.2 (≈ 0.752 µM) | -8 ± 3 | 0.4 (≈ 1.5 µM) | 5 | – | –
7 | O=C1CN2Cc3ccc(F)cc3N=C2N1 [Compound 7] | 2 (≈ 9.75 µM) | -27 ± 3 | 6 (≈ 29.2 µM) | > 10 | – | –
8 | O=C1CN2Cc3cc([N+](=O)[O-])ccc3N=C2N1 [Compound 8, 7-Nitro-1,2,3,5-tetrahydroimidazo-[2,1-b]quinazolin-2-one] | 0.2 (≈ 0.861 µM) | 5 ± 2 | 2 (≈ 8.61 µM) | > 10 | – | –
9 | Nc1ccc2c(c1)CN1CC(=O)NC1=N2 [Compound 9, 7-Amino-1,2,3,5-tetrahydroimidazo-[2,1-b]quinazolin-2-one] | 6 (≈ 29.7 µM) | -10 ± 14 | 50 (≈ 247 µM) | – | – | –
10 | Cc1cccc2c1CN1CC(=O)NC1=N2 [Compound 10, 6-methyl-1,2,3,5-tetrahydroimidazo-[2,1-b]quinazolin-2-one] | 0.1 (≈ 0.497 µM) | -37 ± 8 | 0.5 (≈ 2.48 µM) | 0.6 | 76 | –
11 | Cc1ccc2c(c1)CN1CC(=O)NC1=N2 [Compound 11] | 0.3 (≈ 1.49 µM) | – | 2 (≈ 9.94 µM) | > 10 | – | –
12 | Cc1cccc2c1N=C1NC(=O)CN1C2 [Compound 12] | 3 (≈ 14.9 µM) | -22 ± 10 | 4 (≈ 19.9 µM) | > 10 | – | –
13 | COc1cccc2c1CN1CC(=O)NC1=N2 [Compound 13, 6-methoxy-1,2,3,5-tetrahydroimidazo-[2,1-b]quinazolin-2-one] | 0.2 (≈ 0.921 µM) | -20 ± 14 | 0.5 (≈ 2.3 µM) | 4 | 19 | –
14 | COc1ccc2c(c1)CN1CC(=O)NC1=N2 [Compound 14, 7-methoxy-1,2,3,5-tetrahydroimidazo[2,1-b]quinazolin-2-one] | 0.2 (≈ 0.921 µM) | -19 ± 4 | 1 (≈ 4.6 µM) | 4 | 17 | –
15 | COc1cccc2c1N=C1NC(=O)CN1C2 [Compound 15] | – | -16 ± 3 | – | – | – | –
16 | COc1ccc2c(c1OC)CN1CC(=O)NC1=N2 [Compound 16, 6,7-dimethoxy-1,2,3,5-tetrahydroimidazo[2,1-b]quinazolin-2-one] | – | – | 0.4 (≈ 1.62 µM) | 0.7 | – | –
17 | COc1cc2c(cc1OC)N=C1NC(=O)CN1C2 [Compound 17] | – | 26 | 5 (≈ 20.2 µM) | 4 | 0 | –

Row | SMILES | EC50 [1] [µg/mL] | change in vivo at 50 mg/kg (blood pressure) [%] | EC50 [2] [µg/mL] | ED50 [3] [mg/kg] | In Vivo/In Vitro Dogs P.O. 5 mg./kg. ADP % Inhibition [4] [%] | Blood Pressure % Change Rats P.O. 50 mg./kg. (blood pressure)
18 | O=C1CN2Cc3cc4c(cc3N=C2N1)OCO4 [Compound 18] | 0.07 (≈ 0.303 µM) | -25 ± 12 | 0.7 (≈ 3.03 µM) | > 50 | – | –
19 | O=C1CCN2Cc3ccccc3N=C2N1 [Compound 19, 6-[H]-1,2,3,4-Tetrahydropyrimido[2,1-b]-quinazolin-2-one] | 4 (≈ 19.9 µM) | -32 ± 4 | 25 (≈ 124 µM) | – | – | –
20 | O=C1CCN2Cc3c(Cl)cccc3N=C2N1 [Compound 20] | 0.7 (≈ 2.97 µM) | -12 ± 1 | 6 (≈ 25.5 µM) | 8 | – | –
21 | O=C1CCN2Cc3cc(Br)ccc3N=C2N1 [Compound 21, 8-Bromo-6-[H]-1,2,3,4-tetrahydropyrimido[2,1-b]quinazolin-2-one] | 1.5 (≈ 5.35 µM) | – | 3 (≈ 10.7 µM) | 9 | – | Toxic
22 | Cc1cccc2c1CN1CCC(=O)NC1=N2 [Compound 22] | 0.3 (≈ 1.39 µM) | -26 ± 9 | 3 (≈ 13.9 µM) | > 10 | – | –
23 | Cc1ccc2c(c1)CN1CCC(=O)NC1=N2 [Compound 23] | 2 (≈ 9.29 µM) | -7 ± 2 | 16 (≈ 74.3 µM) | – | – | –
24 | Cc1cccc2c1N=C1NC(=O)CCN1C2 [Compound 24] | – | -19 | – | – | – | –
25 | COc1cccc2c1CN1CCC(=O)NC1=N2 [Compound 25] | 0.4 (≈ 1.73 µM) | -5 ± 3 | 2 (≈ 8.65 µM) | 8 | – | –
26 | COc1ccc2c(c1)CN1CCC(=O)NC1=N2 [Compound 26] | 1.5 (≈ 6.49 µM) | -19 ± 6 | 6 (≈ 25.9 µM) | > 10 | – | –
27 | COc1cccc2c1N=C1NC(=O)CCN1C2 [Compound 27] | – | 1 | – | – | – | –
28 | COc1cc2c(cc1OC)N=C1NC(=O)CCN1C2 [Compound 28] | 32 (≈ 122 µM) | 7 | – | – | – | –
29 | CC1c2ccccc2N=C2NC(=O)CN21 (stereo not drawn) [Compound 29] | 7 (≈ 34.8 µM) | -28 | 2 (≈ 9.94 µM) | 35 | – | –
30 | O=C1CN2Cc3c(ccc4ccccc34)N=C2N1 [Compound 39] | – | -59 | – | – | – | –
31 | Cc1c(Cl)ccc2c1CN1CC(=O)NC1=N2 [Compound 45, 7-Chloro-6-methyl-1,2,3,5-tetrahydroimidazo[2,1-b]quinazolin-2-one] | 0.012 (≈ 0.0509 µM) | – | 0.09 (≈ 0.382 µM) | – | 46 ±8 | –
32 | Cc1cccc2c1C(C)N1CC(=O)NC1=N2 (stereo not drawn) [Compound 50, 5,6-dimethyl-1,2,3,5-tetrahydroimidazo[2,1-b]quinazolin-2-one] | – | -49 | – | – | – | –
33 | Cc1ccc2c(c1)C(C)N1CC(=O)NC1=N2 (stereo not drawn) [Compound 51, 5,7-Dimethyl-1,2,3,5-tetrahydroimidazo-[2,1-b]quinazolin-2-one] | – | -34 | – | – | – | –
